# Test results as given in patent US9919000B2, “Altering cancer cellular functions through proton mopping” (priority 2013, dated 2018).
# How the values were obtained:
# [1] = Tolerability in the 4T1 tumor study (body weight, general behavior); type: in vivo; details: intravenous daily dosing for 5 consecutive days, tumor-bearing Balb/c mice
# Protocol: (§1) Treatment: the tested compound was prepared right before dosing on day 8 after 4T1 inoculation. Each mouse received a predetermined dose of either the compound or saline intravenously daily for 5 consecutive days. The mice tumor volumes and mice body weights were monitored every other day along with other general behavior factors.
# (§2) Endpoints: animal was euthanized if one of the following conditions was identified: • its neoplasm reached the predetermined 1000 cubic mms • the animal became moribund • body weight lost more than 20% of its original weight
# mouse 4T1 breast tumor = assay: In vivo syngeneic mouse 4T1 breast tumor study; parameters: species or system Balb/c mice
# Source text: The Purpose: to assess the anti-tumor activity of the existing compound, C12H25NO8, PEGylated amine functionalized glycoside, 2-[2(2-Aminoethoxy)ethoxy]ethyl a-D-mannopyranoside, on a model of mouse 4T1 breast tumor in Balb/C mice.
# Animal and Facility: healthy female Balb/c (5-6 weeks old), purchased from Harlan Laboratories, were allowed to acclimate for 3 days in a specific pathogen free animal facility. Animal housing, handling and procedures were followed according to the protocols and guidelines approved by the lab's Institutional Animal Care and Use Committee (IACUC).
# In Vivo Syngeneic Tumor Study Design: Murine 4T1 breast tumor cells were kept in RPMI-1640 medium containing 10% FBS and 1% Pen/Strep. On the day of inoculation, the cells were harvested according to standard protocol (Beth Pulaski) and re-suspended in PBS at the cell concentration of 2.5×10^5 cells/ml. Each animal was injected with 0.1 ml of the cell solution into the right flank of Balb/c mice following the SOP. On the 8th day post-inoculation, all tumor volumes were measured and the animals were divided into two groups, control and treated.
# Study Design: to deliver a predetermined dose of the compound intravenously for 5 days.
# Study Objective: to observe clinically the reduction of the size of the tumors using calipers (our “biomarker”).[FIG. 2]
# as §1, §2
compound,measurement,setting,value
"NCCOCCOCCO[C@H]1OC(CO)[C@@H](O)[C@H](O)C1O (stereo partly drawn) [compound 5, 1-(2-(2-(2-Aminoethoxy)ethoxy)ethoxy-D-mannopyranoside]",toxic effects / tolerability,[1],no toxic effects were observed
same,maximal tumor growth inhibition index (TIC ratio),"mouse 4T1 breast tumor; by day 10, intravenously daily for 5 consecutive days from day 8 after 4T1 inoculation, tumor size by calipers",around 48%
same,4T1 tumor growth in the treated group,"mouse 4T1 breast tumor; during treatment (day 8 to day 12), control tumors doubled every 2-3 days",grew slowly
same,tumor reduction,"mouse 4T1 breast tumor; syngeneic mouse breast cancer model, FIG. 1",48%
